Measurements as given in ChEMBL document CHEMBL3808348, “Rational Design, Synthesis, and Biological Evaluation of 7-Azaindole Derivatives as Potent Focused Multi-Targeted Kinase Inhibitors” (J Med Chem, 2016).

How the values were obtained:
[1] = molecular target: Epidermal growth factor receptor (Homo sapiens, UniProt P00533, T790M); test: Inhibition of GST-tagged human recombinant EGFR T790M mutant (668 to 1210 residues) expressed in baculovirus using Fluorescein-Poly GT as substrate
Bcr/Abl fusion protein = Bcr/Abl fusion protein (Homo sapiens, UniProt P00519, T315I); assay type: cell-based, BaF3
Description: Inhibition of human BCR-ABL T315I mutant expressed in mouse BAF3 cells assessed as inhibition of cell proliferation after 72 hrs by MTT assay

[2] = AUC(0 to infinity) in Swiss mouse plasma at 2 mg/kg, iv by LC/MS/MS analysis; assay type: ADME, organism-based; set-up: dose 2 mg/kg, route intravenous, time infinity
[3] = Oral bioavailability in Swiss mouse plasma at 20 mg/kg by LC/MS/MS analysis; assay type: ADME, organism-based
[4] = molecular target: Fibroblast growth factor receptor 2 (Homo sapiens) (UniProt P21802); test: Inhibition of His-tagged human recombinant FGFR2 (403 to 822 residues) expressed in baculovirus using Fluorescein-Poly GT as substrate at 100 nM
Sequence of Fibroblast growth factor receptor 2 (Homo sapiens) (P21802 22-821 limits assumed): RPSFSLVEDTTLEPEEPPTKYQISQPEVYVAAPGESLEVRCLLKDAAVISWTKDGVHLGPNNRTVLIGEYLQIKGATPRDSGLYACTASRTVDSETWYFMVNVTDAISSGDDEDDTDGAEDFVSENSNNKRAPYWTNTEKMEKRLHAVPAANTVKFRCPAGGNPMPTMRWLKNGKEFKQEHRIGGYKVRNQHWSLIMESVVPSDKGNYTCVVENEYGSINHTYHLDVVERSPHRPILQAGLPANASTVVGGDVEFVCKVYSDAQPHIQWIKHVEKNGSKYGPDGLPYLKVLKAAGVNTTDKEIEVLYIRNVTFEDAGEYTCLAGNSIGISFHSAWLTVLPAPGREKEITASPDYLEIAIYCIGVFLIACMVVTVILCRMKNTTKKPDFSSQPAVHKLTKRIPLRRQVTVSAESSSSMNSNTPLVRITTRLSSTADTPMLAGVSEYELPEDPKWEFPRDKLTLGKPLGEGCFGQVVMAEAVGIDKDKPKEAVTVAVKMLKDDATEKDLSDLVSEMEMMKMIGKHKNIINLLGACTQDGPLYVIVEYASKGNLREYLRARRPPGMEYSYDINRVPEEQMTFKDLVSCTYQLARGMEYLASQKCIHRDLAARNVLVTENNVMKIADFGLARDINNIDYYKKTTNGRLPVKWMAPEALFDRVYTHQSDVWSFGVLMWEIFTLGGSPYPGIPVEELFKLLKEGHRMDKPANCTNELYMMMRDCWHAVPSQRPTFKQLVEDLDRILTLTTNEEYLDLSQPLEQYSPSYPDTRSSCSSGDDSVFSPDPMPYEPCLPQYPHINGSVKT

[5] = system: Tyrosine-protein kinase ABL1 (Homo sapiens), P00519 [Y253F]; test: Inhibition of His-tagged full length human recombinant ABL Y253F mutant expressed in baculovirus using Fluorescein-Poly GT as substrate at 100 nM
[6] = molecular target: Tyrosine-protein kinase Blk (Homo sapiens) (UniProt P51451); test: Inhibition of His-tagged full length human recombinant BLK expressed in baculovirus using Fluorescein-Poly GT as substrate at 100 nM
Sequence of Tyrosine-protein kinase Blk (Homo sapiens) (P51451 2-505 limits assumed): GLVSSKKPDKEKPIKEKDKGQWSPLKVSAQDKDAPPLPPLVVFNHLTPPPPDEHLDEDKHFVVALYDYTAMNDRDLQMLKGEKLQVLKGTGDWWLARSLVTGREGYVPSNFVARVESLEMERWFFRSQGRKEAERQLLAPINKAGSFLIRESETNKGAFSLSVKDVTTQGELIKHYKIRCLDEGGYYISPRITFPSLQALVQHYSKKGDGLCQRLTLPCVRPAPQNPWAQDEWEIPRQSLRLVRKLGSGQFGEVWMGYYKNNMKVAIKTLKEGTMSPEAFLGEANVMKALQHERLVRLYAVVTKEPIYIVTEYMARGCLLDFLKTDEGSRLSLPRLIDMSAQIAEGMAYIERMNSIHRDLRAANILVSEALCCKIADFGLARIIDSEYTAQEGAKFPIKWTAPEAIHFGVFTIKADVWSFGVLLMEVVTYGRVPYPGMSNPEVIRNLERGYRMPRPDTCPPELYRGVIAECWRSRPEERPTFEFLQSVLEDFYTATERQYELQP

[7] = molecular target: Tyrosine-protein kinase Fgr (Homo sapiens) (UniProt P09769); test: Inhibition of His-tagged full length human recombinant FGR expressed in baculovirus using Fluorescein-Poly GT as substrate at 100 nM
[8] = molecular target: Serine/threonine-protein kinase B-raf (Homo sapiens, UniProt P15056, V600E); test: Inhibition of full length GST-tagged human recombinant BRAF V600E mutant expressed in baculovirus using Fluorescein-MAP2K1 as substrate
Sequence of Serine/threonine-protein kinase B-raf (P15056 2-766 V600E limits assumed): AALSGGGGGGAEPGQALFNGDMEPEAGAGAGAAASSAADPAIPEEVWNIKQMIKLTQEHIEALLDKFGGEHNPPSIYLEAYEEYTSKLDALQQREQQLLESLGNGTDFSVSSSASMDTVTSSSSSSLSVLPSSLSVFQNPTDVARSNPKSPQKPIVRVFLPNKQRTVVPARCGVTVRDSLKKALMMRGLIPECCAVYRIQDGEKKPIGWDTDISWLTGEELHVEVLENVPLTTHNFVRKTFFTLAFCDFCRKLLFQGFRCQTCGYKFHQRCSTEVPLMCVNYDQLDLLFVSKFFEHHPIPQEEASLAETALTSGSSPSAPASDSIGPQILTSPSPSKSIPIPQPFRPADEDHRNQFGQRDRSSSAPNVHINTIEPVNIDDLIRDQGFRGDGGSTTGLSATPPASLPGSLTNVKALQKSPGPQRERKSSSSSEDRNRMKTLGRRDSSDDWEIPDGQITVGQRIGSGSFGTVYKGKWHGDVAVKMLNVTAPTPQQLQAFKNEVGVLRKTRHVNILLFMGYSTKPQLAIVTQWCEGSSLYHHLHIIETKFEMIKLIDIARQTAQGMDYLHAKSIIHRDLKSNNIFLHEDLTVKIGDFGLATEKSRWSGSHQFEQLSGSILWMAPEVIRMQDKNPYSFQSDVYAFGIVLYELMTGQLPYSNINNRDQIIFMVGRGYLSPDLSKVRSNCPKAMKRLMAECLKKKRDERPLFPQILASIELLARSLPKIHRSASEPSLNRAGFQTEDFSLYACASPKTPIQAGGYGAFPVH

[9] = molecular target: T1, Epidermal growth factor receptor (Homo sapiens, UniProt P00533); test: Inhibition of GST-tagged human recombinant EGFR (668 to1210 residues) expressed in baculovirus using Fluorescein-Poly GT as substrate
T1 sequence (P00533 whole entry, the tested form may be a part): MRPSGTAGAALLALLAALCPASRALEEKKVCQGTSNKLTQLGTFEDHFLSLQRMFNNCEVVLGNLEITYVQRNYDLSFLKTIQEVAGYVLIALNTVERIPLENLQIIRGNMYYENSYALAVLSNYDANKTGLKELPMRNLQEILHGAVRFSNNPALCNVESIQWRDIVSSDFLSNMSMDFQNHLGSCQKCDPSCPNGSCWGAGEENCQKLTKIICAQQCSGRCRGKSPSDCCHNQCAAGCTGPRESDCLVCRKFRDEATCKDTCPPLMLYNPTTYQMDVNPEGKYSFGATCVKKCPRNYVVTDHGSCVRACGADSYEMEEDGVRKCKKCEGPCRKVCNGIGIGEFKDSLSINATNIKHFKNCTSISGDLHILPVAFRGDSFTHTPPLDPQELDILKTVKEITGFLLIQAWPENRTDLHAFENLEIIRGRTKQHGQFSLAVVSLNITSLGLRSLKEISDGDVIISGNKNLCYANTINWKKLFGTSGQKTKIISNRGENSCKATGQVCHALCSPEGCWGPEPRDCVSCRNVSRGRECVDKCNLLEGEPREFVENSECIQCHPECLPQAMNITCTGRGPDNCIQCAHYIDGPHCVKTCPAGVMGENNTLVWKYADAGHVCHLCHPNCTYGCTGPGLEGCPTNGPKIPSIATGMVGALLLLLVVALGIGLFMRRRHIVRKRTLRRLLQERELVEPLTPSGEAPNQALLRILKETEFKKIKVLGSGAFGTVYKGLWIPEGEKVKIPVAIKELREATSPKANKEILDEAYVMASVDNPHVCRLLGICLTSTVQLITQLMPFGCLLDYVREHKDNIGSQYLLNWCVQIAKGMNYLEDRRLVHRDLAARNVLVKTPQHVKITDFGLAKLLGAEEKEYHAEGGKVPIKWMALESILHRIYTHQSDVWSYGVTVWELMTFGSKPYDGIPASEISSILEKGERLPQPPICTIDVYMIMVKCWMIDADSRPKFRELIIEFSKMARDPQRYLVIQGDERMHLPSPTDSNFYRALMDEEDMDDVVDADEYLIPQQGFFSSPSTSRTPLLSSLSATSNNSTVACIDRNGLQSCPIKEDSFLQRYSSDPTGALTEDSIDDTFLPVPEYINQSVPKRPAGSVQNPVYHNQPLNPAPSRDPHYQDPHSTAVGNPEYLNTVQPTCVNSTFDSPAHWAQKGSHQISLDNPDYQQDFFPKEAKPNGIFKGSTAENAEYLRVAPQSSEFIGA

[10] = molecular target: Tyrosine-protein kinase Lyn (Homo sapiens, UniProt P07948); test: Inhibition of GST-tagged full length human recombinant LYNA expressed in baculovirus using Fluorescein-Poly GT as substrate
[11] = molecular target: Proto-oncogene tyrosine-protein kinase Src (Homo sapiens, UniProt P12931); test: Inhibition of full length His-tagged human recombinant cSRC expressed in baculovirus using Fluorescein-Poly GT as substrate
[12] = molecular target: Platelet-derived growth factor receptor alpha (Homo sapiens, UniProt P16234); test: Inhibition of full length GST-tagged human recombinant PDGFRalpha expressed in baculovirus using Fluorescein-Poly GT as substrate
[13] = molecular target: T1, Epidermal growth factor receptor; test: Inhibition of GST-tagged human recombinant EGFR (668 to1210 residues) expressed in baculovirus using Fluorescein-Poly GT as substrate at 100 nM
[14] = molecular target: AMP-activated protein kinase, AMPK (Homo sapiens) (UniProt P54646+O43741+P54619+Q9UGJ0+Q9Y478+Q13131+Q9UGI9); settings: 100 nM
Description: Inhibition of full length human recombinant AMPK expressed in baculovirus expression system using Fluorescein-CREBtide as substrate at 100 nM

[15] = molecular target: NUAK family SNF1-like kinase 1 (Homo sapiens) (UniProt O60285); settings: 100 nM
Description: Inhibition of NUAK1 (unknown origin) at 100 nM

[16] = molecular target: Protein kinase C delta type (Homo sapiens) (UniProt Q05655); settings: 100 nM
Description: Inhibition of full length human recombinant PKCdelta expressed in baculovirus using Fluorescein-PKC as substrate at 100 nM

[17] = molecular target: Rho-associated protein kinase 2 (Homo sapiens) (UniProt O75116); settings: 100 nM
Description: Inhibition of GST-tagged human recombinant ROCK2 ( 1 to 552 residues) expressed in baculovirus using Fluorescein-PKC as substrate at 100 nM

[18] = molecular target: Serine/threonine-protein kinase PLK1 (Homo sapiens) (UniProt P53350); settings: 100 nM
Description: Inhibition of His-tagged full length human recombinant PLK1 expressed in baculovirus using at 100 nM

[19] = molecular target: Vascular endothelial growth factor receptor 3 (Homo sapiens) (UniProt P35916); settings: 100 nM
Description: Inhibition of GST-tagged human recombinant VEGFR3 (800 to 1297 residues) expressed in baculovirus using Fluorescein-Poly GT as substrate at 100 nM

[20] = molecular target: Receptor tyrosine-protein kinase erbB-4 (Homo sapiens) (UniProt Q15303); settings: 100 nM
Description: Inhibition of GST-tagged human recombinant ERBB4 (708 to 993 residues) expressed in baculovirus using Fluorescein-Poly GT as substrate at 100 nM

[21] = molecular target: Mitogen-activated protein kinase 14 (Homo sapiens) (UniProt Q16539); settings: 100 nM
Description: Inhibition of GST-tagged full length human recombinant p38alpha expressed in Escherichia coli using Fluorescein-Poly GT as substrate at 100 nM

[22] = molecular target: Vascular endothelial growth factor receptor 2 (Homo sapiens) (UniProt P35968); settings: 100 nM
Description: Inhibition of His-tagged human recombinant VEGFR2 (789 to 1356 residues) expressed in baculovirus using Fluorescein-Poly GT as substrate at 100 nM

[23] = molecular target: Receptor-type tyrosine-protein kinase FLT3 (Homo sapiens) (UniProt P36888); settings: 100 nM
Description: Inhibition of His-tagged human recombinant FLT3 (564 to 958 residues) expressed in baculovirus using Fluorescein-Poly GT as substrate at 100 nM

[24] = molecular target: Calcium/calmodulin-dependent protein kinase type II subunit delta (Homo sapiens) (UniProt Q13557); settings: 100 nM
Description: Inhibition of full length His-tagged human recombinant CaMK2 delta expressed in baculovirus using Fluorescein-CREBtide as substrate at 100 nM

[25] = molecular target: Cyclin-dependent kinase 1/cyclin B1 (Homo sapiens) (UniProt P06493+P14635); settings: 100 nM
Description: Inhibition of CDK1/cyclinB (unknown origin) at 100 nM

[26] = molecular target: CDK7/Cyclin H/MNAT1 (Homo sapiens) (UniProt P51946+P50613+P51948); settings: 100 nM
Description: Inhibition of CDK7/cyclinH/MNAT1 (unknown origin) at 100 nM

[27] = molecular target: CDK9/cyclin T1 (Homo sapiens) (UniProt O60563+P50750); settings: 100 nM
Description: Inhibition of CDK9/cyclinT1 (unknown origin) at 100 nM

[28] = molecular target: Mast/stem cell growth factor receptor Kit (Homo sapiens) (UniProt P10721); settings: 100 nM
Description: Inhibition of His-tagged human recombinant cKIT expressed in baculovirus using Fluorescein-Poly GT as substrate at 100 nM

[29] = molecular target: Tyrosine-protein kinase Fer (Homo sapiens) (UniProt P16591); settings: 100 nM
Description: Inhibition of His-tagged human recombinant FER (541 to 822 residues) expressed in baculovirus using Fluorescein-Poly GT as substrate at 100 nM

[30] = molecular target: Fibroblast growth factor receptor 1 (Homo sapiens) (UniProt P11362); settings: 100 nM
Description: Inhibition of His-tagged human recombinant FGFR1 (308 to 731 residues) expressed in baculovirus using Fluorescein-Poly GT as substrate at 100 nM

[31] = molecular target: Insulin-like growth factor 1 receptor (Homo sapiens) (UniProt P08069); settings: 100 nM
Description: Inhibition of His-tagged human recombinant IGF1R (960 to 1397 residues) expressed in baculovirus using Fluorescein-Poly GT as substrate at 100 nM

[32] = molecular target: Inhibitor of nuclear factor kappa-B kinase subunit alpha (Homo sapiens) (UniProt O15111); settings: 100 nM
Description: Inhibition of His-tagged full length human recombinant IKKalpha expressed in baculovirus using Fluorescein-IKK as substrate at 100 nM

[33] = molecular target: Tyrosine-protein kinase ITK/TSK (Homo sapiens) (UniProt Q08881); settings: 100 nM
Description: Inhibition of GST-tagged full length human recombinant ITK expressed in baculovirus using Fluorescein-Poly GT as substrate at 100 nM

[34] = molecular target: Tyrosine-protein kinase JAK3 (Homo sapiens) (UniProt P52333); settings: 100 nM
Sequence of Tyrosine-protein kinase JAK3 (Homo sapiens) (P52333 whole entry): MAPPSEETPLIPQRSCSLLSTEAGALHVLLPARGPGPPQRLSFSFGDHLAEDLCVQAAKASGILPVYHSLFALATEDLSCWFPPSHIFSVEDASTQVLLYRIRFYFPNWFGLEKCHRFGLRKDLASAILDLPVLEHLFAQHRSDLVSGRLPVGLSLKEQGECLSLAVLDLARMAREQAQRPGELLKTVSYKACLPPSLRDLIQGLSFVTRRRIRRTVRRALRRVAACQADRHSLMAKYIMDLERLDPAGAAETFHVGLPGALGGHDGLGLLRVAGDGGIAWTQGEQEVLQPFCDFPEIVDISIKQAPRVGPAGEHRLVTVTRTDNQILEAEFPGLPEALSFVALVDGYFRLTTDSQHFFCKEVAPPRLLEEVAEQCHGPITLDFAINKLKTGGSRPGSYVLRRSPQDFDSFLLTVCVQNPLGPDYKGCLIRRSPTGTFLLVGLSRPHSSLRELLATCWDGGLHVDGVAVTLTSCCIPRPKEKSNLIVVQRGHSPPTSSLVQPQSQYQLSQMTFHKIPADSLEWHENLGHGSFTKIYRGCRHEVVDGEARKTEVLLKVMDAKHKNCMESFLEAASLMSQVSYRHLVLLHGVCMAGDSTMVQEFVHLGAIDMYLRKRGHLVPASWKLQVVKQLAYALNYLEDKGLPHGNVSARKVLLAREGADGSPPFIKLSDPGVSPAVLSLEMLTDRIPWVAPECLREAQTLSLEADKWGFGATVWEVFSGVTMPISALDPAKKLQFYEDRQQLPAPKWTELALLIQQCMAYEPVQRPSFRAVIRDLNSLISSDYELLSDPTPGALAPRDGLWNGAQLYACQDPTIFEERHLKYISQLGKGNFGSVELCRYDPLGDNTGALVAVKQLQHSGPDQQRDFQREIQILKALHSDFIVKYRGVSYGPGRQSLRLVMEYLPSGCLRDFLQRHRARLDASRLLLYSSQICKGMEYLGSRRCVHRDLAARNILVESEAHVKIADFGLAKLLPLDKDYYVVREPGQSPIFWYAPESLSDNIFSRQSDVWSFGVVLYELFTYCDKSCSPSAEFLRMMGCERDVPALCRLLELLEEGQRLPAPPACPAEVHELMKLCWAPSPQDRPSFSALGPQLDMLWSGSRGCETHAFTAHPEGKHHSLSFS
Description: Inhibition of GST-tagged human recombinant JAK3 (781 to 1124 residues) expressed in baculovirus using GFP-ST AT1 as substrate at 100 nM

[35] = molecular target: Mitogen-activated protein kinase 1 (Homo sapiens) (UniProt P28482); settings: 100 nM
Description: Inhibition of GST-tagged full length human recombinant ERK2 expressed in Escherichia coli using GFP-AT F2 as substrate at 100 nM

[36] = molecular target: Megakaryocyte-associated tyrosine-protein kinase (Homo sapiens) (UniProt P42679); settings: 100 nM
Sequence of Megakaryocyte-associated tyrosine-protein kinase (Homo sapiens) (P42679 whole entry): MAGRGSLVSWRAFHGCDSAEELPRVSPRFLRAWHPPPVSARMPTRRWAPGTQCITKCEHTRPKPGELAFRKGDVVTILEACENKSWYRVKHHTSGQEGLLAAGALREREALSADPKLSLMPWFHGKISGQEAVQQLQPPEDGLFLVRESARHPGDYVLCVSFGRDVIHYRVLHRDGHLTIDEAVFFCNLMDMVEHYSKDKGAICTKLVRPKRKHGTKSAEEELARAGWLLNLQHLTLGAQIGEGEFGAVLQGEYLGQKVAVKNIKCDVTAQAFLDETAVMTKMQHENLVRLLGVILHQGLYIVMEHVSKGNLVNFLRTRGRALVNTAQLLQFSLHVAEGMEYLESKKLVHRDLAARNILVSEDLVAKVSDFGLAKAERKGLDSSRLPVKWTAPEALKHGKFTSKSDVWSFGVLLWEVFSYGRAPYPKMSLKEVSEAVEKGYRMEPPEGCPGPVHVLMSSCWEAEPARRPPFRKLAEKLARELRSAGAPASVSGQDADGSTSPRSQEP
Description: Inhibition of His-tagged full length human recombinant MATK expressed in Escherichia coli using Fluorescein-Poly GT as substrate at 100 nM

[37] = molecular target: Myosin light chain kinase, smooth muscle (Homo sapiens) (UniProt Q15746); settings: 100 nM
Description: Inhibition of GST-tagged human recombinant MLCK (1428 to 1771 residues) expressed in baculovirus at 100 nM

[38] = molecular target: cAMP-dependent protein kinase catalytic subunit alpha (Homo sapiens) (UniProt P17612); settings: 100 nM
Description: Inhibition of His-tagged human recombinant PKA C-alpha (1 to 351 residues) expressed in Escherichia coli using Fluorescein-Crosstide as substrate at 100 nM

Work on `COC(=O)c1cc2cc(NCc3cc(NC(=O)c4cc(-n5cnc(C)c5)cc(C(F)(F)F)c4)ccc3C)cnc2[nH]1` yielded an IC50 [1] of 112 nM, an EC50 (Bcr/Abl fusion protein) of 1.8 nM and an AUC(0-inf) [2] of 558 ng·h/mL. It also gave a bioavailability [3] of 47%, an inhibition [4] of 52% and an inhibition [5] of over 80%. For the same compound, the inhibition [6] was over 80%, the inhibition [7] was over 80% and the IC50 [8] was 10 nM. The IC50 [9] was 15 nM, the IC50 [10] was 37 nM and the IC50 [11] was 40 nM. The IC50 [12] was 50 nM, the inhibition [13] was 82% and the inhibition [14] was under 40%. The inhibition [15] was under 40%, the inhibition [16] was under 40% and the inhibition [17] was under 40%. The inhibition [18] was under 40%, the inhibition [19] was under 40% and the inhibition [20] was under 40%. For the same compound, the inhibition [21] was under 40%, the inhibition [22] was under 40% and the inhibition [23] was under 40%. It also gave an inhibition [24] of under 40%, an inhibition [25] of under 40% and an inhibition [26] of under 40%. It also gave an inhibition [27] of under 40%, an inhibition [28] of under 40% and an inhibition [29] of under 40%. The inhibition [30] was under 40%, the inhibition [31] was under 40% and the inhibition [32] was under 40%. It also gave an inhibition [33] of under 40%, an inhibition [34] of under 40% and an inhibition [35] of under 40%. It also gave an inhibition [36] of under 40%, an inhibition [37] of under 40% and an inhibition [38] of under 40%.
